Values after ≈ are worked out from the molar mass of the structure shown. Read-outs that look alike come from different tables or passages of the source.

Results on eight compounds are retold here after patent US4687762A, “Water soluble drug complex and method for production of same” (Green Cross Corporation, priority 1984, dated 1987).

Data set [1] can be described thus: Acute toxicity (LD50) in mice. As to conditions: mouse, in vivo, drug. The source says:
The intravenous and oral acute toxicity values (LD50) in mice of each drug-phospholipid complex of this invention were compared with those of the corresponding component drug.

Data set [2] can be described thus: Solubility in distilled water for injection. The class given is physicochemical. To be noted: for solubility: component drug, distilled water for injection, 20° C.
A short description of data set [3]: Blood pressure lowering effect in dogs (Test 2). The class given is in vivo, dog (male mongrel dogs). As to conditions: intravenous. How it is done: (§1) The pharmacologic effect of the drug-phospholipid complex according to this invention administered by the intravenous route was compared with that of the component drug administered in the same manner using 10 aminals. Test (1): Antitumor Effect
Test (2): Blood Pressure Lowering Effect
Ten normal male mongrel dogs were intravenously administered with prostaglandin E1 and the blood pressure of each animal was measured using a catheter inserted into the carotid artery of the animal.
The blood pressure lowing ratio was calculated according to the following equation. [formula] wherein P1 represents the blood pressure after the administration and P2 represents that before the administration.

On the set-up of data set [4]: species or system rat (male Wistar). To be noted: rat, in vivo, iv, 1440 min. From the text:
The organ affinity of the drug-phospholipid complex according to this invention was compared with that of the component drug. […] Twenty-four hours after the administration, the degree of retention of the drug in each organ was estimated by determining the radio-activity level.

Data set [5] deals with L-1210 mouse ascites tumor cells. Briefly: Antitumor effect, life prolongation in L-1210 inoculated mice (Test 1). The data set is classed as in vivo. To be noted: intravenous, 5 days, BDF1 mice. Here is the method: as §1
Ten male BDF1 mice ([…]) were inoculated with 10^6 cells of L-1210 mouse ascites tumor cells. After 24 hours from the inoculation Sapdicomycin as a drug was administered to the animals for continuous 5 days, and the number of days in which the test animals were dead. The life prolongation ratio was calculated according to the following equation. [formula] wherein A1 represents an average survival period (day) of control group (without administration) and A2 represents that of administered group.

Data set [6] in a line: Oral route absorption in rats. On the set-up: species or system rat (male Wistar). As to conditions: rat, in vivo. From the text: The oral route absorption of the drug-phospholipid complex according to this invention administered was compared with that of the component drug similarly administered. […] Twenty-four hours after the administration, the degree of retention of the drug in each organ was estimated by determining the radio-activity level.

Where [7] appears, read: intravenous, read-out: Acute Toxicity (LD50), Intravenous Administration, Drug.
Where [8] appears, read: oral, read-out: Acute Toxicity (LD50), Oral Administration, Drug.

What is called solubility is the concentration that dissolves in the medium under given conditions. Read a low solubility as a poorly soluble substance. Consider `O=c1[nH]cc(F)c(=O)[nH]1` [5-Fluorouracil], for which the LD50 was 173 mg/kg in data set [1] (setting [7]) and 249 mg/kg in data set [1] (setting [8]). Further, the solubility in data set [2] came out at 13000 µg/mL (≈ 99900 µM).
`COc1ccc2c(c1)c(CC(=O)OCC(=O)O)c(C)n2C(=O)c1ccc(Cl)cc1` [Acemetacin, acemetacin] gave a solubility in data set [2] of 400 µg/mL (≈ 962 µM).
Take `COc1cccc2c1C(=O)c1c(O)c3c(c(O)c1C2=O)C[C@@](O)(C(=O)CO)C[C@@H]3O[C@H]1C[C@H](N)[C@H](O)[C@H](C)O1` [Adriamycin, adriamycin]: the LD50 in data set [1] (setting [7]) came out at 9.1 mg/kg; in data set [1] (setting [8]), 737 mg/kg. Also, the concentration in solution in data set [2] (solubility) was 7000 µg/mL (≈ 12900 µM).
`COc1cccc2c1C(=O)c1c(O)c3c(c(O)c1C2=O)C[C@@](O)(C(C)=O)C[C@@H]3O[C@H]1C[C@H](N)[C@H](O)[C@H](C)O1` [Daunomycin, daunomycin]: the figures for the LD50 in data set [1] (setting [7]) and in data set [1] (setting [8]) were 23.5 mg/kg and 271 mg/kg, respectively. Further, the solubility in data set [2] is 20000 µg/mL (≈ 37900 µM).
In data set [2], `C[C@@H]1C[C@H]2[C@@H]3CCC4=CC(=O)C=C[C@]4(C)[C@@]3(F)[C@@H](O)C[C@]2(C)[C@@]1(O)C(=O)CO` [Dexamethasone, dexamethasone] showed a solubility of 50 µg/mL (≈ 127 µM).
On to `CC(C(=O)O)c1ccc(-c2ccccc2)c(F)c1` (centres unmarked) [Flurbiprofen, flurbiprofen], for which, in data set [2], the concentration in solution (solubility) came to 150 µg/mL (≈ 614 µM).
Consider `CCCCC[C@H](O)/C=C/[C@H]1[C@H](O)CC(=O)[C@@H]1CCCCCCC(=O)O` [Prostaglandin E1, prostaglandin E1], for which the LD50 in data set [1] (setting [8]) was found to be 7570 mg/kg. Besides, the “Blood pressure lowering ratio, Drug” value in data set [3] (0.25 mg/kg) was 4.8%; in data set [3] (0.5 mg/kg), 7.7%; in data set [3] (1.0 mg/kg), 10.5%. This compound registered a solubility in data set [2] of 70 µg/mL (≈ 197 µM).
On to spadicomycin, for which, in data set [4], the “Retention in kidney, Drug” value stood at 129 dpm per Gram Organ Weight; the “Retention in liver, Drug” value turned out to be 585 dpm per Gram Organ Weight; the “Retention in tumor, Drug” value is reported as 3800 dpm per Gram Organ Weight; the “Retention in whole blood, Drug” value stood at 825 dpm per Gram Organ Weight. The “Antitumor effect (life prolongation ratio), Drug” value in data set [5] (2.5 mg/kg) worked out at 19%. Besides, in data set [5] (5.0 mg/kg), the “Antitumor effect (life prolongation ratio), Drug” value is 25%. Further, in data set [5] (10.0 mg/kg), the “Antitumor effect (life prolongation ratio), Drug” value was 50%. The “Absorption Rate, Drug” value in data set [6] came out at 2.0%. Further, in data set [2] (water), the “Solubility, Component Drug” value stood at 55000 µg/mL.
